The source made the active and inactive calls. For most assays here, no stated cut-off is given here; in the data, active = IC50 of 10 µM or less and inactive = more.
What was measured:
Assay type in all cases: functional
[1] = biological target: DNA dC->dU-editing enzyme APOBEC-3G (Homo sapiens, UniProt Q9HC16); test: inhibition of APOBEC3G ssDNA deamination – biochemical, fluorescence, single-stranded DNA substrate, SAR follow-up (AID 602136); details: read-out: IC50_Mean
[2] = biological target: DNA dC->dU-editing enzyme APOBEC-3A (Homo sapiens, UniProt P31941); test: SAR analysis of small molecule inhibitors of APOBEC3A DNA Deaminase via a fluorescence-based single-stranded DNA deaminase assay.; details: read-out: IC50_Mean
[3] = biological target: DNA (cytosine-5)-methyltransferase 1 (Homo sapiens, UniProt P26358); test: inhibition of DNA methylation by DNMT1 – biochemical, fluorescent molecular beacon, confirmation (AID 602386)
Sequence of DNA (cytosine-5)-methyltransferase 1 (P26358 whole entry): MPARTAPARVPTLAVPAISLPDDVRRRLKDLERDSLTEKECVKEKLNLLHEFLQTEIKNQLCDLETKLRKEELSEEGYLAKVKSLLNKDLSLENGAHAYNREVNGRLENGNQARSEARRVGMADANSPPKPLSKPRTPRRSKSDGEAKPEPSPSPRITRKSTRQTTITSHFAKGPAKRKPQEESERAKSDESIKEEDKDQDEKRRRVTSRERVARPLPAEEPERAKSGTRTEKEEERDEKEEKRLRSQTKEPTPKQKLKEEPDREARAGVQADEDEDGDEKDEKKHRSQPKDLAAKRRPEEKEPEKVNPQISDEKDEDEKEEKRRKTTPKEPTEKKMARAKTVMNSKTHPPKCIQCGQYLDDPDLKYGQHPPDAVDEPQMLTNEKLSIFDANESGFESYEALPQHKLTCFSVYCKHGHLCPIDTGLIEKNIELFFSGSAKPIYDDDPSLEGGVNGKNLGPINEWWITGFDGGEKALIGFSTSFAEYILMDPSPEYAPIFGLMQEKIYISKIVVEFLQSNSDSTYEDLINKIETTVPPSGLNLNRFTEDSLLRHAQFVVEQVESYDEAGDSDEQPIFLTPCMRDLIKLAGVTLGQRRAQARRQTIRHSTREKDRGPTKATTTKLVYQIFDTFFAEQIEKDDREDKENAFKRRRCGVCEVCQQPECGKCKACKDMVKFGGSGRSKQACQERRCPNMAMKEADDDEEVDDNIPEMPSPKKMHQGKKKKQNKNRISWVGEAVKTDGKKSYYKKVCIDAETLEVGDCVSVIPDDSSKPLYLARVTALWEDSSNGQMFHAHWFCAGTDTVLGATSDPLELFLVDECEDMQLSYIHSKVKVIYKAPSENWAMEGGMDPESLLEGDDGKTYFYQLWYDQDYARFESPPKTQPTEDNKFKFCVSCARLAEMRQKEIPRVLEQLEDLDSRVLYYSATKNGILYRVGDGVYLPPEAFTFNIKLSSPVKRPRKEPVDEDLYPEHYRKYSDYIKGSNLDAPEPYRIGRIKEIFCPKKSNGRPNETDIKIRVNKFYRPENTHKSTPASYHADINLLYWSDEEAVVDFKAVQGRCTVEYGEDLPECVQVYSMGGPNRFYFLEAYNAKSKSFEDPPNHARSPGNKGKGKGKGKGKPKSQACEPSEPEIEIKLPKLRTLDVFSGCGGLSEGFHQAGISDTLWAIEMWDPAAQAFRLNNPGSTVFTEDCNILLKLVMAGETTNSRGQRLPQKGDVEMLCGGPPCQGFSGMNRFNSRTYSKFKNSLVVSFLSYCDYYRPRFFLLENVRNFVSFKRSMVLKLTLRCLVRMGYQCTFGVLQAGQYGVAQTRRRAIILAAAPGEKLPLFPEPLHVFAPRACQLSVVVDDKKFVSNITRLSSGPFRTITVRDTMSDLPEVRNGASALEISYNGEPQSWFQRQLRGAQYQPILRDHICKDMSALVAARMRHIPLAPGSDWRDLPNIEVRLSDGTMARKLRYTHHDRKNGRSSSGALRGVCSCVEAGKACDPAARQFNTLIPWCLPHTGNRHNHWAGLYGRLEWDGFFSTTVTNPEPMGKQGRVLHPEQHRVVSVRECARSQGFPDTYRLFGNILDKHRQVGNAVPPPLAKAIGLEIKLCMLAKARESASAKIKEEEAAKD

Sequence of DNA dC->dU-editing enzyme APOBEC-3G (Q9HC16 whole entry): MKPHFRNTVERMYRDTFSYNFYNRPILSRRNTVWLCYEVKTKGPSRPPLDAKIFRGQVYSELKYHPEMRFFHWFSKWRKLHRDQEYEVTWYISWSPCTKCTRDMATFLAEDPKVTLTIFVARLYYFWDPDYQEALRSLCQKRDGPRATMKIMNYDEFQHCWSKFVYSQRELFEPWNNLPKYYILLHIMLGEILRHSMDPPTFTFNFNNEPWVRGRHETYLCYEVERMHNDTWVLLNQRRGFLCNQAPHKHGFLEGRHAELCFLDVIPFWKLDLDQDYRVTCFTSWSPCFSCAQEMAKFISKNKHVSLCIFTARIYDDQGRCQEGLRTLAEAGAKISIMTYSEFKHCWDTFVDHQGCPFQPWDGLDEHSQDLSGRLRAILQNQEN
Sequence of DNA dC->dU-editing enzyme APOBEC-3A (P31941 whole entry): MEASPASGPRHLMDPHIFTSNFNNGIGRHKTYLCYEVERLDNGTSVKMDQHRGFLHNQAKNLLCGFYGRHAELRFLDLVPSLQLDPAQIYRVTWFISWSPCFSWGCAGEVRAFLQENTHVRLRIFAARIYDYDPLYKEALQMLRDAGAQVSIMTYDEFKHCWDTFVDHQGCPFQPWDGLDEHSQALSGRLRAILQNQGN

Structure (SMILES)	IC50 [1]	IC50 [2]	IC50 [3]
Cc1ccc(Cl)c2c1N[C@@H](c1ccccc1Br)[C@H]1CC=C[C@@H]21	> 99 µM (inactive)	> 99 µM (inactive)	–
CCc1ccc(Nc2nc(Nc3ccc(OC)cc3)nc(N3CCCC3)n2)cc1	> 99 µM (inactive)	> 99 µM (inactive)	–
Cc1ccc2cc3c(N)c4c(C)ccc(C)c4nc3nc2c1	–	–	> 99 µM (inactive)
